The source of these data is ChEMBL document CHEMBL1201862, “PubChem BioAssay data set” (2004).

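Values below derive from 48-hour exposures of cells grown in 96-well plates, with endpoints linearly interpolated between the two concentrations bracketing the appropriate inhibition level. The concentration for 50% growth inhibition is given as GI50.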 Calls of active or inactive are those of the source. No stated cut-off is given here; in the data, active = GI50 up to about 1.1 µM and inactive = higher.

Among the test systems are M14; LOX IMVI; OVCAR-5; MDA-N; KM12; RPMI-8226; A549; SR; SN12C; SK-MEL-2; PC-3; TK-10; 786-0; SK-MEL-5; MCF7; ACHN; SNB-19; HOP-92; RXF 393.
Assay in all cases: NCI-60 cell line screen, 48 h

For the compound `S=C(NCCc1ccccn1)N/N=C/c1ccccn1`, the GI50 in the test on M14 is 0.0131 µM (active); with LOX IMVI, < 0.0373 µM (active); in the test on OVCAR-5, < 0.018 µM (active); with MDA-N it was 1.91 µM (inactive); in the test on KM12, 0.106 µM (active); in the test on RPMI-8226, < 0.01 µM (active). For the same compound, the GI50 is 0.578 µM (active) with A549; < 0.01 µM (active) in the test with SR; 1.11 µM (active) in the test with SN12C; 0.0457 µM (active) with SK-MEL-2; 0.0115 µM (active) with PC-3; 0.42 µM (active) with TK-10. In addition, the GI50 with 786-0 is 0.0653 µM (active); in the test with SK-MEL-5, 0.182 µM (active); with MCF7, < 0.01 µM (active); in the test on ACHN, < 0.01 µM (active); in the test with SNB-19 it was 2.28 µM (inactive).

Take `NNC(=O)Cc1cccnc1`: the GI50 in the test with M14, in the test on LOX IMVI, in the test on OVCAR-5, with MDA-N, in the test on KM12 and in the test with HOP-92 was > 100 µM (inactive) throughout. Besides, the GI50 in the test with RPMI-8226, in the test with A549, with RXF 393, in the test with SN12C, with SK-MEL-2 and with PC-3 was > 100 µM (inactive) throughout. Also, the GI50 in the test with TK-10, in the test on 786-0, in the test with SK-MEL-5, in the test with MCF7, in the test on ACHN and with SNB-19 was > 100 µM (inactive) in each case.

Consider `S=C1CSc2c(ccc3ccccc23)N1`, for which the GI50 with M14, in the test with LOX IMVI, in the test on OVCAR-5, in the test with MDA-N, in the test on KM12 and in the test on RPMI-8226 was > 100 µM (inactive) in each case. The GI50 with A549 was 67.1 µM (inactive); with SR, > 100 µM (inactive); in the test with RXF 393, 35.9 µM (inactive); in the test on SN12C it was > 100 µM (inactive); with PC-3, > 100 µM (inactive); in the test with TK-10, > 100 µM (inactive). Moreover, the GI50 in the test with 786-0, with SK-MEL-5, in the test on MCF7, in the test with ACHN and in the test on SNB-19 was > 100 µM (inactive) throughout.

For the compound `Cc1cc(=O)n2nc(CSc3nnc(N)s3)sc2n1`, the GI50 with M14, in the test on LOX IMVI, in the test on OVCAR-5, in the test on MDA-N, in the test with KM12 and with HOP-92 was > 100 µM (inactive) in each case. Besides, the GI50 in the test on RPMI-8226, in the test on A549, with RXF 393, in the test with SN12C, in the test on SK-MEL-2 and in the test on PC-3 was > 100 µM (inactive) each time. Besides, the GI50 with TK-10, in the test with 786-0, in the test with SK-MEL-5, in the test with MCF7, in the test on ACHN and in the test with SNB-19 was > 100 µM (inactive) each time.

For `CSC1=N/C(=C\c2ccc(Cl)cc2)C(=O)N1CN1CCCCC1`, the GI50 in the test with M14 was 79.1 µM (inactive); in the test with LOX IMVI, 44.7 µM (inactive); in the test on OVCAR-5 it was 99.1 µM (inactive); in the test with MDA-N it was 56.8 µM (inactive); in the test on KM12, 49.5 µM (inactive); with RPMI-8226, 37.4 µM (inactive). Further, the GI50 in the test with A549 is 42.4 µM (inactive); in the test on SR, 25 µM (inactive); in the test with SN12C it was 67.5 µM (inactive); in the test with SK-MEL-2, 67.5 µM (inactive); in the test on PC-3 it was 35.3 µM (inactive); in the test on TK-10 it was 31.6 µM (inactive). Moreover, the GI50 with 786-0 is 42.8 µM (inactive); with SK-MEL-5, 32.4 µM (inactive); with MCF7 it was 5.33 µM (inactive); with ACHN, 25.4 µM (inactive).
